Results taken from patent US5962525A, “6,7-disubstituted-2-aminotetralines active as immunomodulators and pharmaceutical compositions containing same” (Sigma-Tau, priority 1990, dated 1999).
Like-named read-outs stand apart in the source and are kept apart here.

Experiments:
[1] = LD50, intravenous; settings: mouse, in vivo, 0.9% saline
Protocol: LD50 was determined according to Carrol S. Weil's method, Biometrics, pages 249-263 (1952) in male Swiss albino mice weighing 22-24 g.
The various compounds dissolved in 0.9% saline were administered intravenously.

[2] = system: murine peritoneal exudate cells (PEC); assay: "In vitro-ex vivo" effect on the phagocytic activity of exudate peritoneal cells (SRBC phagocytosis); design: species or system mouse (B6 D2 F1); settings: 25 mg/kg/day i.p.
Protocol: Assessment of the "in vitro-ex vivo" effect of ST 557, ST 563, ST 564, ST 570, ST 608 and ST 626 on the phagocytic activity of exudate peritoneal cells (PEC)
Male B6 D2 F1 mice aged 6-8 weeks (5 animals each group) were used.
The compounds were administered i.p. (25 mg/kg/day), ST 557, ST 563 and ST 626 were also administered per os (100 mg/kg/day) from day -5 to day -1 (PEC harvesting at day 0).
The experimental procedure was substantially the same as that described by Williams et al., in "Methods in Immunology and Immunochemistry", Acad. Press. 5: 261 (1976).
In particular, 24 hours following the end of the treatment, PECs from each experimental group were harvested, pooled and their concentration was adjusted to 4×10^6 cells/ml.
To volumes of 250 μl of each PEC sample were added equal volumes of 0.4% SRBC (Sheep Red Blood Cells) opsonized with hyperimmune serum.
The samples (duplicate) were incubated for 1 hour and then subjected to hypotonic shock in order to remove the non-phagocytized SRBC. After restoring the osmolarity, the phagocytes were cytocentrifuged, stained with a differential dye and observed under the microscope.
The results were expressed as:
(a) percentage of cells that have phagocytized with respect to 100 phagocytizing cells;
(b) total number of phagocytized SRBC;
(c) average number of SRBC in each phagocyte.

[3] = Tolerability after oral or intravenous administration; design: species or system mouse (Swiss albino); settings: mouse, in vivo, 7 days observation, read-out: Tolerability, dose
Protocol: The test was conducted in male Swiss albino mice weighing 22-24 g.
A group of animals (4 animals/dose) which had been kept fasting for 18 hours, were orally administered the compounds ST 557, ST 563, ST 564 and ST 570 dissolved in twice distilled water.
A further group of animals, which had free access to food and water, were administered intravenously the same compounds dissolved in saline it pH 7. All the animals were kept under observation for 7 days.

[4] = system: splenocytes; assay: "In vitro-ex vivo" effect on the mytogen (PHA, ConA, LPS)-induced splenocyte proliferation in mice immunodepressed with cyclophosphamide; design: species or system mouse (B6 D2 F1); settings: for S.I. (stimulation index): with respect to the immunodepressed controls; for AUC (area under curve): immunodepressed
Protocol: Assessment of the "in vitro-ex vivo" effect of ST 557, ST 563 ST 564 on the mytogen (PHA, ConA, LPS)-Induced splenocyte proliferation in mice Immunodepressed with cyclotohosphamide
Male B6 D2 F1 mice aged 7-9 weeks (5 mice per group) were used.
The immunosuppressor (cyclophosphamide) was administered i.p. at the dose of 100 mg/kg at day -5. The compounds were administered i.p. (25 mg/kg/day) and per os (100 mg/kg/day) from day -5 to day -1 (spleen excision at day 0).
Splenocyte proliferation was induced by three different mytogens: PHA and ConA active on T-lymphocytes, and LPS active on B-lymphocytes. Each mytogen was tested at three different concentrations (suboptimal, optimal and superoptimal) corresponding to 0.5, 4 and 6 mcg/ml/well for PHA; 0.5, 4 and 8 mcg/ml/well for ConA and 0.5, 150 and 500 mcg/ml/well for LPS.
The experimental procedure is identical to that described in test 4.
The results are expressed as both AUC (see test 4) and S.I. In order to assess the efficacy of the immunosuppressor and the activity of the tested compounds, S.I. has been determined both for the immunodepressed controls (with respect to the normal controls) and for the immunodepressed treated animals (with respect to the immunodepressed controls), respectively. [formula]

COc1ccc(OCC(O)CNC2CCc3cc(OC)c(OC)cc3C2)cc1 (stereo not shown) [ST 564, 2-[(N-2-hydroxy-3-(4-methoxyphenoxy)propyl)amino]-6,7-dimethoxytetraline]
LD50 [1]: 44.5 mg/kg
Fagocytizing cells [2]: 40.0%
Total n° SRBC phagocytized [2]: 126.6
SRBC per phagocytizing cell ([2]; average number of SRBC in each phagocyte): 3.2
MTD at 168 h ([3]; iv): > 20 mg/kg
MTD at 168 h ([3]; po, os, fasting 18 hours): > 50 mg/kg
S.I. (stimulation index) ([4]; ConA, 25 mg/kg/day i.p.): 1.01
S.I. (stimulation index) ([4]; ConA, 100 mg/kg/day os): 0.78
AUC (area under curve) ([4]; ConA, 25 mg/kg/day i.p.): 514 ± 10 ×10^-3
AUC (area under curve) ([4]; ConA, 100 mg/kg/day os): 577 ± 41 ×10^-3
S.I. (stimulation index) ([4]; LPS, 25 mg/kg/day i.p.): 2.74
S.I. (stimulation index) ([4]; LPS, 100 mg/kg/day os): 0.65
AUC (area under curve) ([4]; LPS, 25 mg/kg/day i.p.): 2533 ± 314 ×10^-3
AUC (area under curve) ([4]; LPS, 100 mg/kg/day os): 3023 ± 257 ×10^-3
S.I. (stimulation index) ([4]; PHA, 25 mg/kg/day i.p.): 2.05
AUC (area under curve) ([4]; PHA, 25 mg/kg/day i.p.): 205 ± 18 ×10^-3
